Assay results as given in US5514694A, “Peptidyl ketoamides” (Georgia Tech Research Corp, priority 1993, dated 1996).
pIC50, pKi: −log10 of the molar value. Where two headings read alike, the source gives them in different places.

Legend:
Assay type in all cases: biochemical
[1] = biological target: T1, Calpain I from human erythrocytes (Homo sapiens, UniProt P07384); test: Calpain I inhibition, Suc-Leu-Tyr-AMC hydrolysis (KI); conditions: read-out: KI Cal I
T1 construct: Calpain I was purified from human erythrocytes; from tissue; host or cells: human erythrocytes
T1 sequence (P07384 1-714): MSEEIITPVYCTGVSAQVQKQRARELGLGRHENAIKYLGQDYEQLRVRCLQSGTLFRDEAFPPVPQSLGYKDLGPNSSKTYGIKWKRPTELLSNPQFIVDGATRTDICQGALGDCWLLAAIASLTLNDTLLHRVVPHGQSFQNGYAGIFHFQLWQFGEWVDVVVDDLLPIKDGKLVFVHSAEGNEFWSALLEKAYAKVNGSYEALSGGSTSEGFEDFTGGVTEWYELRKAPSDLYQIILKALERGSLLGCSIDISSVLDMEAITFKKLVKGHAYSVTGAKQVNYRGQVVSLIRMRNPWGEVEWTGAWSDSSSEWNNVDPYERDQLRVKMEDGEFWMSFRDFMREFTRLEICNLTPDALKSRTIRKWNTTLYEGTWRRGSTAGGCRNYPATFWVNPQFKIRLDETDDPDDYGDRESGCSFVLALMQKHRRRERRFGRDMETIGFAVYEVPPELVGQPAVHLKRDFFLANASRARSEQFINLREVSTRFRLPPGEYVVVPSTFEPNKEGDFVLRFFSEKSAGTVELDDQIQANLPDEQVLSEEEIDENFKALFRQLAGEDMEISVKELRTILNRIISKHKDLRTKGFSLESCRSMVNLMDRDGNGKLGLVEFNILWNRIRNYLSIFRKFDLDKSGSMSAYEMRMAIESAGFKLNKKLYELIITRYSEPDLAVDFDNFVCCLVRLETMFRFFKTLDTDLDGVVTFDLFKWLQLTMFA
T1 sequence (P04632 1-268 partner): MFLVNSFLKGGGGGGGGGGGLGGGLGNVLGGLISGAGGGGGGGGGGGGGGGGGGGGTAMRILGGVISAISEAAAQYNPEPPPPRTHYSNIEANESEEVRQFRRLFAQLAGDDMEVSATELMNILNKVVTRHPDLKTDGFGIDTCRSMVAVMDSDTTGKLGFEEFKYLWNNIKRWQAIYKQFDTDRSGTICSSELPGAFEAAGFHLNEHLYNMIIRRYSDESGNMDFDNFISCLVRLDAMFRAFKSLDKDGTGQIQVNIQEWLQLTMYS
In short: (§1)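 Reversible KI values came from Lineweaver-Burk or Dixon plots of rates at varied substrate and inhibitor (in Me2SO) levels, with reactions started by enzyme. Calpains (human erythrocyte I, rabbit muscle II) hydrolysed Suc-Leu-Tyr-AMC in 25 mM Tris pH 8.0, 10 mM CaCl2 (ex 380/em 460 nm). Cathepsin B used Bz-Phe-Val-Arg-pNA (20 mM acetate pH 5.2, 0.5 mM DTT) or Z-Arg-Arg-AFC.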

[2] = biological target: T2, human leukocyte elastase (HLE) (Homo sapiens, UniProt P08246); test: HLE inhibition, MeO-Suc-Ala-Ala-Pro-Val-NA hydrolysis; conditions: for pIC50: Table 4, Z-Leu--AA--CONH-R; for pKi: Table 4, in brackets under the IC50
T2 sequence (P08246 30-267): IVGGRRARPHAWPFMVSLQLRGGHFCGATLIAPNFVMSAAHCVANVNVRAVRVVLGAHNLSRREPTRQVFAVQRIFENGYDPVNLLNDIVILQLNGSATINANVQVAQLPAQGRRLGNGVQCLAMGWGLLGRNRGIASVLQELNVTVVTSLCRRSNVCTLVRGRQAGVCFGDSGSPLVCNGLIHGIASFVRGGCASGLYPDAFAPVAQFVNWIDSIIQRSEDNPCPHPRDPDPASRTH
Protocol: (§2) Peptide α-ketoamides were assayed as reversible enzyme inhibitors. Various concentrations of inhibitors in Me2 SO were added to the assay mixture which contained buffer and substrate. The reaction was started by the addition of the enzyme and the hydrolysis rates were followed spectrophotometrically or fluorimetrically.
(§3) A 0.1M Hepes, 0.5M NaCl, pH 7.5 buffer was utilized for human leukocyte elastase (HLE), porcine pancreatic elastase (PPE), chymotrypsin and cathepsin G. A 0.1 Hepes, 0.01 M CaCl2, pH 7.5 buffer was utilized for trypsin, plasmin, and coagulation enzymes. A 50 mM Tris.HCl, 2 mM EDTA, 5 mM cysteine, pH 7.5 was used as a buffer for papain. A 88 mM KH2 PO4, 12 mM Na2 HPO4, 1.33 mM EDTA, 2.7 mM cysteine, pH 6.0 solution was used as a buffer for cathepsin B. A 20 mM Hepes, 10 mM CaCl2, 10 mM mercatoethanol, pH 7.2 buffer was utilized for calpain I and calpain II.
(§4) HLE and PPE were assayed with MeO-Suc-Ala-Ala-Pro-Val-NA and Suc-Ala-Ala-Ala-NA, respectively Nakajima et al., J. Biol. Chem. 254, 4027-4032 (1979); incorporated herein by reference!. Human leukocyte cathepsin G and chymotrypsin Aα were assayed with Suc-Val-Pro-Phe-NA Tanaka et al., Biochemistry 24, 2040-2047 (1985); incorporated herein by reference!. The hydrolysis of peptide 4-nitroanilides was measured at 410 nm ε410 =8800 M^-1 cm^-1; Erlanger et al., Arch. Biochem. Biophys. 95, pp 271-278 (1961); incorporated herein by reference!. Trypsin, thrombin, human plasma kallikrein, porcine pancreatic kallikrein, human factor XIa, and human plasmin were assayed with Z-Arg-SBzl or Z-Gly-Arg-SBu-i McRae et al., Biochemistry 20, 7196-7206 (1981); incorporated herein by reference!. All peptide thioester hydrolysis rates were measured with assay mixtures containing 4,4'-dithiodipyridine ε324 =19800 M^-1 cm^-1; Grasetti & Murray, Arch. Biochem. Biophys. 119, 41-49 (1967); incorporated herein by reference!.

[3] = biological target: T3, Human leukocyte cathepsin G (Homo sapiens, UniProt P08311); test: Cathepsin G inhibition, Suc-Val-Pro-Phe-NA hydrolysis; conditions: Table 4, Z-Leu--AA--CONH-R
T3 sequence (P08311 21-255): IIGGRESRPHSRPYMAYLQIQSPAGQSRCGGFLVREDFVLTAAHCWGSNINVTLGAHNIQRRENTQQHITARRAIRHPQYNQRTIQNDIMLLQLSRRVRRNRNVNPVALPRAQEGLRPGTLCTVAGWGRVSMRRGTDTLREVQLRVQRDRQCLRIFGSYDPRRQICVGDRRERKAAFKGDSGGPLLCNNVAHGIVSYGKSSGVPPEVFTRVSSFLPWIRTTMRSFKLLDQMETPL
Protocol: as §2, §3, §4

calpain II from rabbit = test: Calpain II inhibition, Suc-Leu-Tyr-AMC hydrolysis (KI); conditions: Table 2, Z-Leu--AA--CONH--CH2 CH(OH)-R; read-out: KI Cal II
In short: as §1

cathepsin B = biological target: T4, cathepsin B (Homo sapiens, UniProt P07858); test: Cathepsin B inhibition (KI); conditions: Table 2, Z-Leu--AA--CONH--CH2 CH(OH)-R; read-out: KI Cat B
T4 construct: purchased Sigma
In short: as §1

[4] = Table 2, Z-Leu--AA--CONH--CH2 CH(OH)-R

SMILES	pKi ([1]; Table 1, Z-Leu--AA--CONHR)	pIC50 [2]	pIC50 [3]	pKi [1, 4]	pKi [2]	pKi (calpain II from rabbit)	pKi (cathepsin B)
CC(C)CC(NC(=O)OCc1ccccc1)C(=O)NC(Cc1ccccc1)C(=O)C(=O)NCCCN1CCOCC1 (stereo not drawn) [Z-Leu-Phe-CONH-(CH2)3 -4-morpholinyl, Z-Leu-Phe-CONH--(CH2)3 -4-Morpholinyl]	6.66	< 3.65	3.87	–	–	–	–
CC(C)C[C@H](NC(=O)OCc1ccccc1)C(=O)N[C@@H](Cc1ccccc1)C(=O)C(=O)NCC(O)c1ccc(N(C)C)cc1 (stereo partly drawn) [Z-Leu-Phe-CONH--CH2 CH(OH)C6 H4 (4-N(CH3)2)]	–	4.55	4.24	6.21	–	–	–
CC(C)C[C@H](NC(=O)OCc1ccccc1)C(=O)N[C@@H](Cc1ccccc1)C(=O)C(=O)NCC(O)c1ccccc1 (stereo partly drawn) [Z-Leu-Phe-CONH-CH2 CH(OH)-Ph, Z-Leu-Phe-CONH--CH2 CH(OH)Ph]	–	4.36	3.99	5.89	–	7.30	5.68
CC(C)C[C@H](NC(=O)OCc1ccccc1)C(=O)N[C@@H](Cc1ccccc1)C(=O)C(=O)NCC(O)c1cccc(Oc2cccc(C(F)(F)F)c2)c1 (stereo partly drawn) [Z-Leu-Phe-CONH--CH2 CH(OH)C6 H4 -3-OC6 H4 (3-CF3)]	–	4.15	4.10	6.74	–	–	–

These reach a higher pIC50 [2]. Values come first.

pKi ([1]; Table 1, Z-Leu--AA--CONHR)	pIC50 [2]	pIC50 [3]	pKi [1, 4]	pKi [2]	pKi (calpain II from rabbit)	pKi (cathepsin B)	SMILES
–	4.96	< 3.69	6.46	5.05	–	–	CCC(NC(=O)C(CC(C)C)NC(=O)OCc1ccccc1)C(=O)C(=O)NCC(O)c1cccc(C(F)(F)F)c1 (stereo not drawn) [Z-Leu-Abu-CONH-CH2 CH(OH)-C6 H4 (3-CF3), Z-Leu-Abu-CONH--CH2 CH(OH)C6 H4 (3-CF3)]
–	4.74	< 3.69	6.48	4.72	–	–	CC[C@H](NC(=O)[C@H](CC(C)C)NC(=O)OCc1ccccc1)C(=O)C(=O)NCC(O)c1ccc(N(C)C)cc1 (stereo partly drawn) [Z-Leu-Abu-CONH--CH2 CH(OH)C6 H4 (4-N(CH3)2)]
